Values after ≈ are worked out from the molar mass of the structure shown.
Details: buffer; pH 7.4; 200.0 µM

SMILES | solubility kinetic [µg/mL]
CC(=O)c1cn(N2CCCCC2)c(=O)[nH]c1=O | > 35.6
Cc1cc(NC(=O)COC(=O)/C=C/c2ccc(C)o2)no1 | 1.8 (≈ 6.2 µM)
CCOc1ccc(N2CC(C(=O)N3CCCCCC3)CC2=O)cc1 (stereo not given) | > 49.6
Cc1ccc(S(=O)(=O)N2CCCCC2)cc1NS(=O)(=O)c1ccccc1F | > 61.9
Cc1cc(C(=O)c2cnc(/N=C/N(C)C)s2)c(F)cc1Cl | 13.6 (≈ 41.7 µM)
NC1=NC(=Nc2ccc(S(N)(=O)=O)cc2)c2ccccc21 | > 45.1
O=C(COC(=O)c1ccccc1Oc1ccccc1)NC1CC1 | > 46.7
CCC1CCCCN1C(=O)COC(=O)c1cc(=O)[nH]c2ccccc12 (stereo not given) | > 51.4
CC1(C)CC(=O)N(c2ccc(C#N)cc2)C(=O)C1 | > 36.3
COc1cc(C(=O)OCC(=O)NCC2CCCO2)cc(OC)c1OC (stereo not given) | > 53
CCOC(=O)C(NC(C)=O)C(O)c1ccc([N+](=O)[O-])cc1 (stereo not given) | 43.2 (≈ 146 µM)
O=C(NC1CC1)c1ccc(-n2cccc2)cc1 | 17.4 (≈ 76.9 µM)
Cc1ccc(NC(=O)COC(=O)C2CC2)cc1Cl | 35.6 (≈ 133 µM)
COc1cccc(CNC(=O)c2csc3c2CCCC3)c1 | 19.5 (≈ 64.7 µM)
Cc1cccc(N2C(=O)CSC23CCCCC3)c1 | 20.3 (≈ 77.7 µM)
CCN1CCN(C(=O)Cc2ccc(C)cc2)CC1 | > 37
Cc1ccc(OS(=O)(=O)c2ccc(N3C(=O)CCC3=O)cc2)cc1 | 18.3 (≈ 53 µM)
NC(=O)c1ccc[n+](CC(=O)c2ccc(F)cc2)c1.[Br-] | > 50.9
C=CCCCCCCCCC(=O)Nc1ncccn1 | 6.8 (≈ 26 µM)
O=C(Cc1ccccc1)Oc1coc(CSc2ncccn2)cc1=O | > 53.2
O=C1C(=O)N(CCS(=O)(=O)c2ccccc2)c2ccccc21 | > 47.3
O=C1N(CCCl)c2ccc(Br)cc2C12OCCO2 | 48.1 (≈ 145 µM)
CCCn1c(N)c(N2CCCCC2)c(=O)n(CC(=O)Nc2ccccc2C(F)(F)F)c1=O | 7.7 (≈ 17 µM)
COC(=O)c1cc(S(=O)(=O)N(C)C2CCCCC2)oc1C | 37.5 (≈ 119 µM)

SMILES | solubility kinetic [µg/mL]
C=CCN1C(=O)c2ccc(C(=O)N3CCC(C(N)=O)CC3)cc2C1=O | 47.9 (≈ 140 µM)
COc1cccc(-c2nc(-c3ccccc3)c(-c3ccccc3)[nH]2)c1OCC(=O)O | > 60.1
COc1ccc(NC(=O)CSc2nc3nc(C)cc(C)c3c(=O)[nH]2)cc1OC | 6.5 (≈ 16.2 µM)
Cc1cnc(NC(=O)c2cc(S(=O)(=O)N(C)C)ccc2N2CCCC2)s1 | 4.7 (≈ 11.9 µM)
N#CC1=C(N)Oc2cc(N)ccc2C1c1ccccc1Cl (stereo not given) | 32.9 (≈ 110 µM)
Cc1ccc(S(=O)(=O)N2CCN3CCCC3C2)cc1 (stereo not given) | > 42.1
O=C(Nc1cccc(S(=O)(=O)N2CCCCC2)c1)C1CCCC1 | 41.2 (≈ 122 µM)
CN(C)Cc1cccc([N+](=O)[O-])c1O | > 29.4
OC1(c2ccc(F)cc2)CCN(Cc2cccnc2)CC1 | > 43
CN1C(=O)/C(=C/c2cc3c(cc2Br)OCO3)NC1=S | < 0.4
COCCSc1ccccc1C(=O)N1CCc2ccccc21 | 44.5 (≈ 142 µM)
O=C1OCCN1S(=O)(=O)Nc1ccccc1 | > 36.3
Cc1sc2nc[nH]c(=O)c2c1-c1ccc(Cl)cc1 | 1.8 (≈ 6.5 µM)
N/C(=N\OC(=O)c1ccoc1)c1ccc(Br)cc1 | 9.2 (≈ 29.8 µM)
C=CCN=C1S/C(=C/c2ccc([N+](=O)[O-])cc2)C(=O)N1CC=C | < 0.2
O=C(OCC(=O)c1ccc[nH]1)C1=COCCO1 | > 35.6
O=C1NCCCCC1NS(=O)(=O)c1cccc(C(F)(F)F)c1 (stereo not given) | > 50.4
O=C1CS(=O)(=O)c2ccccc2N1 | > 29.6
Cc1cc(C)c2sc(NC(=O)CN3C(=O)CCC3=O)nc2c1 | 46.4 (≈ 146 µM)
CC1(C)CC2(C)OC(=N)C1(C#N)C2(C#N)C#N (stereo not given) | 34 (≈ 149 µM)
Cc1cc(C)c(C(=O)CN2C(=O)NC3(CCCCC3)C2=O)cc1C | 2 (≈ 6.09 µM)
CN(Cc1ccccc1)c1ncc(C=O)s1 | 27.8 (≈ 120 µM)
COc1ccccc1NC(=O)c1ccc([N+](=O)[O-])o1 | 36.8 (≈ 140 µM)
CC1(C(=O)N2CCN(c3ccccc3)CC2)CC1(Cl)Cl (stereo not given) | 46.8 (≈ 149 µM)

The remaining lines, values ahead:

solubility kinetic [µg/mL] | SMILES
21.6 (≈ 80.5 µM) | Cc1cc2ncn(C(=O)c3ccc(F)cc3)c2cc1C
> 50.9 | CN(C)S(=O)(=O)c1cccc(NC(=S)NCc2ccco2)c1
> 47.1 | Cc1cccc(CN2C3=NCCCN3c3ccccc32)c1.Cl
9.3 (≈ 24.1 µM) | CSc1ccccc1C(=O)OCC(=O)Nc1ccc(N2CCOCC2)cc1
1.3 (≈ 4.49 µM) | O=C(NCc1ccccc1F)Nc1ccc([N+](=O)[O-])cc1
1.3 (≈ 4.9 µM) | O=C(Nc1ccc2ccccc2c1)c1cccc(F)c1
3 (≈ 9.08 µM) | Cc1ccc(S(=O)(=O)N2CCN(c3ccccc3)CC2)c(C)c1
21.9 (≈ 67.9 µM) | CCN(CC)c1ccc(CNc2ccc3c(c2)ncn3CC)cc1
16.9 (≈ 48.7 µM) | CCC(C(=O)OC(C)C(=O)Nc1ccc(Cl)cn1)c1ccccc1 (stereo not given)
> 43.7 | COc1ccc(CCNC(=O)COC(=O)C2CC2C)cc1 (stereo not given)
> 55.1 | NC(=O)C1CC(=O)N(c2ccc(OCC(=O)NCc3ccccc3)cc2)C1 (stereo not given)
> 41.5 | Cc1ccc(S(=O)(=O)NCc2ccccn2)cc1C
> 49.3 | CCOc1ccc(NC(=O)N[C@@H](Cc2ccccc2)C(=O)O)cc1
2.1 (≈ 5.99 µM) | COc1ccc(C(=O)Nc2ccccc2C(=O)NCc2ccco2)cc1
14 (≈ 39.6 µM) | Cc1cc(OCC(=O)OCC(=O)NCc2cccs2)ccc1Cl
11.8 (≈ 36.8 µM) | COc1ccccc1CNC(=S)NCc1ccc(Cl)cc1
> 45.3 | CCOc1ccc(NC(=O)CCNC(=O)c2ccco2)cc1
> 52.7 | CCc1cccc(CC)c1N(COC)C(=O)Cn1cnc2ccccc21
2.2 (≈ 6.19 µM) | CCc1ccccc1NC(=S)N1CCN(c2cccc(OC)c2)CC1

solubility kinetic [µg/mL] | SMILES
> 59 | CCCOP(=O)(c1ccc(N(C)C)cc1)C(O)c1cc(OC)ccc1OC (stereo not given)
2.3 (≈ 6.6 µM) | CCC(=O)N(CCc1ccccc1)Cc1cc2cccc(C)c2[nH]c1=O
> 48.7 | CCc1cccc(C)c1NC(=O)CCNC(=O)c1cccc(C)c1
36.8 (≈ 131 µM) | Cc1cn(CCOc2ccc(Cl)cc2)c(=O)[nH]c1=O
6.2 (≈ 19.6 µM) | Cc1ccc(C(C)NC(=S)NCc2ccc(F)cc2)cc1C (stereo not given)
20.7 (≈ 68 µM) | COC(=O)c1sccc1NC(=O)Nc1ccc(C)c(C)c1
< 0.2 | N#Cc1ccc(NC(=O)c2cc(-c3cccs3)on2)cc1
7.6 (≈ 18.2 µM) | O=C(CCc1ccc(S(=O)(=O)N2CCOCC2)cc1)OCC(=O)c1ccccc1
> 45.2 | CCOC(=O)NC(=O)COC(=O)c1cccc2ccccc12
2.8 (≈ 8.3 µM) | Cn1c(C(=O)N2CCN(c3ccc(F)cc3)CC2)cc2ccccc21
> 43.9 | O=S(=O)(c1ccc(Cl)cc1)n1cnc2ccccc21
2 (≈ 6.59 µM) | CC(=O)Nc1nc(-c2ccccc2)cc(-c2ccco2)c1C#N
38.3 (≈ 108 µM) | COc1ccccc1CNC(=O)COC(=O)Cn1cnc2ccccc21
> 50.3 | Cc1ccc(NC(=O)CN2C(=O)NC(C)(CC(C)C)C2=O)cc1F (stereo not given)
> 52.4 | Cc1nnc(NC(=O)CSc2nccn2-c2ccc(F)cc2)s1
> 54.2 | Fc1ccc(CN2CCCN(C(=S)Nc3ccc(F)cc3)CC2)cc1
0.6 (≈ 1.76 µM) | Cn1c(N)c(C(=O)Nc2ccc(-c3ccccc3)cc2)sc1=S
> 50.5 | CCN(CC(=O)NCc1cccs1)C(=O)c1cccc(Cl)c1

Reference: PubChem BioAssay AID1996
